Source: the CheMixHub viscosity set
Several values for one entry are separate records, joined by “and”; a condition that tells them apart may be missing. Equal values may be shown once.

Columns and labels:
[1] = xn = mol fraction of the nth substance listed

CCn1cc[n+](C)c1.O=S(=O)([N-]S(=O)(=O)C(F)(F)F)C(F)(F)F
Details	viscosity
293.15 K, 100 kPa	41.6 mPa·s and 39.2 mPa·s
297.55 K, 101 kPa	36.3 mPa·s
298 K, 100 kPa	29.67 mPa·s
298.15 K, 100 kPa	33.9 mPa·s and 32.55 mPa·s
298.15 K, 101 kPa	30.72 mPa·s and 32.3 mPa·s
298.15 K, 101.3 kPa	32.42 mPa·s
303 K, 100 kPa	24.82 mPa·s
303.15 K, 100 kPa	27.68 mPa·s and 27.4 mPa·s
303.15 K, 101.3 kPa	28.6 mPa·s
308 K, 100 kPa	20.99 mPa·s
308.15 K, 101.3 kPa	23.19 mPa·s
313 K, 100 kPa	17.97 mPa·s
313.15 K, 100 kPa	20.16 mPa·s and 19.1 mPa·s and 20.1 mPa·s
313.15 K, 101 kPa	19.9 mPa·s and 19.26 mPa·s
313.15 K, 101.3 kPa	19.94 mPa·s
318 K, 100 kPa	15.57 mPa·s
318.15 K, 101.3 kPa	17.37 mPa·s
323 K, 100 kPa	13.28 mPa·s
323.15 K, 100 kPa	15.34 mPa·s and 14.4 mPa·s and 15.3 mPa·s
323.15 K, 101.3 kPa	15.34 mPa·s

O=S(=O)([N-]S(=O)(=O)C(F)(F)F)C(F)(F)F.OCCNCCO.[Li+]
101 kPa
Details	viscosity [mPa·s]
313.15 K	1775
318.15 K	1235
323.15 K	895

CC(C)(C)N
viscosity
Details	298 K	298.15 K	303 K	303.15 K	308 K	308.15 K	313.15 K
101 kPa	0.434 mPa·s	0.4394 mPa·s and 0.439 mPa·s	0.403 mPa·s	0.4363 mPa·s and 0.4443 mPa·s	0.375 mPa·s	0.4126 mPa·s and 0.4126 mPa·s	–
101.33 kPa	–	0.4394 mPa·s	–	0.4088 mPa·s	–	0.3803 mPa·s	0.3558 mPa·s

CC#N
Details	viscosity
293.15 K, 101.32 kPa	0.3579 mPa·s
293.15 K, 101.33 kPa	0.408 mPa·s and 0.383 mPa·s
297.92 K, 101 kPa	0.3538 mPa·s
298.15 K, 100 kPa	0.3479 mPa·s and 0.3462 mPa·s and 0.338 mPa·s
298.15 K, 101.3 kPa	0.335 mPa·s and 0.346 mPa·s
298.15 K, 101.33 kPa	0.39 mPa·s and 0.361 mPa·s and 0.345 mPa·s
301.67 K, 101 kPa	0.3418 mPa·s
303 K, 100 kPa	0.3485 mPa·s
303.15 K, 100 kPa	0.3332 mPa·s and 0.3307 mPa·s
303.15 K, 101.3 kPa	0.326 mPa·s
303.15 K, 101.33 kPa	0.371 mPa·s and 0.333 mPa·s
303.61 K, 101 kPa	0.3353 mPa·s
305.61 K, 101 kPa	0.3294 mPa·s
308 K, 100 kPa	0.3285 mPa·s
308 K, 101 kPa	0.3205 mPa·s
308.15 K, 100 kPa	0.3196 mPa·s and 0.3165 mPa·s
308.15 K, 101.3 kPa	0.314 mPa·s and 0.306 mPa·s
308.15 K, 101.33 kPa	0.319 mPa·s
308.76 K, 101 kPa	0.3201 mPa·s
311.67 K, 101 kPa	0.3112 mPa·s
313 K, 100 kPa	0.3102 mPa·s
313.15 K, 100 kPa	0.3071 mPa·s and 0.298 mPa·s
313.15 K, 101.3 kPa	0.291 mPa·s
313.15 K, 101.32 kPa	0.2974 mPa·s
313.15 K, 101.33 kPa	0.337 mPa·s
318 K, 101 kPa	0.2908 mPa·s
323.15 K, 100 kPa	0.2849 mPa·s and 0.2624 mPa·s
323.15 K, 101.32 kPa	0.2729 mPa·s
323.15 K, 101.33 kPa	0.309 mPa·s

C=Cc1ccccc1
101 kPa
Details	viscosity
298.15 K	1.07 mPa·s and 0.695 mPa·s
308.15 K	0.618 mPa·s
313.15 K	0.573 mPa·s

CCC(C)(C)OC
100 kPa
Details	viscosity [mPa·s]
293.15 K	0.439
303.15 K	0.415
313.15 K	0.369
323.15 K	0.335

BrC(Br)Br
viscosity
Details	298 K	298.15 K	303.15 K	308.15 K	313.15 K	318 K
101 kPa	–	–	1.843 mPa·s and 1.861 mPa·s	1.729 mPa·s and 1.746 mPa·s	1.623 mPa·s and 1.641 mPa·s	–
101.3 kPa	1.873 mPa·s	1.912 mPa·s	1.79 mPa·s	1.684 mPa·s	–	–
101.33 kPa	–	1.912 mPa·s and 1.977 mPa·s	1.79 mPa·s and 1.857 mPa·s	1.684 mPa·s and 1.733 mPa·s	–	1.476 mPa·s

CC12CC3CC(C1)CC(C)(C3)C2
100 kPa
Details	viscosity
293.15 K	3.779 mPa·s and 3.778 mPa·s
298.15 K	3.371 mPa·s and 3.365 mPa·s
303.15 K	3.027 mPa·s and 3.017 mPa·s
308.15 K	2.747 mPa·s
313.15 K	2.475 mPa·s
318.15 K	2.262 mPa·s
323.15 K	2.05 mPa·s

NCCOCCO
101.33 kPa
Details	viscosity [mPa·s]
298.15 K	26.66
313.15 K	13.43
323.15 K	9.155

CC(=O)c1ccc(Cl)cc1
303.15 K
Details	viscosity [mPa·s]
100 kPa	2.353
101 kPa	2.353

CCCCCCCCO
viscosity
Details	293.15 K	298 K	298.15 K	303.15 K	308 K	308.15 K	313 K	313.15 K	318.15 K	323.15 K
100 kPa	9.045 mPa·s and 9.2 mPa·s and 8.98 mPa·s	7.614 mPa·s	7.546 mPa·s and 7.67 mPa·s and 7.56 mPa·s	6.337 mPa·s and 6.35 mPa·s	–	–	–	4.564 mPa·s and 4.61 mPa·s and 4.585 mPa·s	–	3.365 mPa·s and 3.38 mPa·s
101 kPa	8.309 mPa·s and 9.185 mPa·s	–	7.33 mPa·s and 7.3 mPa·s	–	5.228 mPa·s	–	4.464 mPa·s	4.199 mPa·s and 4.691 mPa·s and 4.58 mPa·s	–	3.464 mPa·s and 3.369 mPa·s
101.3 kPa	9.273 mPa·s and 9.183 mPa·s	–	7.598 mPa·s and 7.84 mPa·s	6.102 mPa·s and 6.42 mPa·s	–	5.403 mPa·s	–	4.413 mPa·s and 4.661 mPa·s	4.051 mPa·s and 3.701 mPa·s	2.84 mPa·s
101.33 kPa	–	–	–	–	–	5.352 mPa·s	–	–	–	3.361 mPa·s and 3.361 mPa·s

CC1CCCC(O)C1 (stereo not drawn)
Details	viscosity [mPa·s]
293.15 K, 101 kPa	22.8

BrC(Br)C(Br)Br
101 kPa
Details	viscosity [mPa·s]
298.08 K	9.687
308.11 K	7.313
313.11 K	6.406

BrC(Br)Br + CCCCCO
viscosity [mPa·s], [1], 101.3 kPa
Details	x1 = 0.097	x1 = 0.2	x1 = 0.296	x1 = 0.4	x1 = 0.499	x1 = 0.6	x1 = 0.701	x1 = 0.8	x1 = 0.9
298.15 K	3.255	3.006	2.729	2.477	2.275	2.114	1.997	1.91	1.873
303.15 K	2.831	2.621	2.399	2.2	2.039	1.928	1.822	1.762	1.742
308.15 K	2.452	2.296	2.113	1.954	1.829	1.741	1.67	1.631	1.628

BrC(Br)Br + CC(C)CCO
viscosity [mPa·s], [1], 101.33 kPa
Details	x1 = 0.099	x1 = 0.203	x1 = 0.299	x1 = 0.422	x1 = 0.498	x1 = 0.599	x1 = 0.702	x1 = 0.803	x1 = 0.9
298.15 K	3.419	3.063	2.77	2.415	2.265	2.111	1.957	1.888	1.873
303.15 K	2.937	2.643	2.384	2.145	2.025	1.909	1.795	1.739	1.737
308.15 K	2.527	2.306	2.111	1.905	1.815	1.729	1.647	1.61	1.605

CCCCCCCCO + C1CCCCC1
[1]
Details	viscosity [mPa·s]
293.15 K, 100 kPa, x2 = 0.0821	7.85
293.15 K, 100 kPa, x2 = 0.1596	6.77
293.15 K, 100 kPa, x2 = 0.2413	5.78
293.15 K, 100 kPa, x2 = 0.3502	4.63
293.15 K, 100 kPa, x2 = 0.4402	3.78
293.15 K, 100 kPa, x2 = 0.5611	2.83
293.15 K, 100 kPa, x2 = 0.6512	2.26
293.15 K, 100 kPa, x2 = 0.7501	1.79
293.15 K, 100 kPa, x2 = 0.8503	1.38
293.15 K, 100 kPa, x2 = 0.9396	1.11
303.15 K, 100 kPa, x2 = 0.0821	5.56
303.15 K, 100 kPa, x2 = 0.1596	4.83
303.15 K, 100 kPa, x2 = 0.2413	4.15
303.15 K, 100 kPa, x2 = 0.3502	3.33
303.15 K, 100 kPa, x2 = 0.4402	2.73
303.15 K, 100 kPa, x2 = 0.5611	2.08
303.15 K, 100 kPa, x2 = 0.6512	1.72
303.15 K, 100 kPa, x2 = 0.7501	1.4
303.15 K, 100 kPa, x2 = 0.8503	1.12
303.15 K, 100 kPa, x2 = 0.9396	0.92
303.15 K, 101.33 kPa, x1 = 0.1206	1.057
303.15 K, 101.33 kPa, x1 = 0.221	1.301
303.15 K, 101.33 kPa, x1 = 0.2975	1.52
303.15 K, 101.33 kPa, x1 = 0.3517	1.697
303.15 K, 101.33 kPa, x1 = 0.4355	2.023
303.15 K, 101.33 kPa, x1 = 0.5414	2.518
303.15 K, 101.33 kPa, x1 = 0.608	2.869
303.15 K, 101.33 kPa, x1 = 0.755	3.829
303.15 K, 101.33 kPa, x1 = 0.8637	4.746
308 K, 101 kPa, x2 = 0.1494	4.134
308 K, 101 kPa, x2 = 0.2768	3.348
308 K, 101 kPa, x2 = 0.3962	2.659
308 K, 101 kPa, x2 = 0.5076	2.09
308 K, 101 kPa, x2 = 0.6146	1.64
308 K, 101 kPa, x2 = 0.7054	1.36
308 K, 101 kPa, x2 = 0.7911	1.132
308 K, 101 kPa, x2 = 0.8587	0.96
308 K, 101 kPa, x2 = 0.9354	0.828
313.15 K, 100 kPa, x2 = 0.0821	4.06
313.15 K, 100 kPa, x2 = 0.1596	3.56
313.15 K, 100 kPa, x2 = 0.2413	3.09
313.15 K, 100 kPa, x2 = 0.3502	2.52
313.15 K, 100 kPa, x2 = 0.4402	2.1
313.15 K, 100 kPa, x2 = 0.5611	1.65
313.15 K, 100 kPa, x2 = 0.6512	1.37
313.15 K, 100 kPa, x2 = 0.7501	1.14
313.15 K, 100 kPa, x2 = 0.8503	0.9
313.15 K, 100 kPa, x2 = 0.9396	0.78
323.15 K, 100 kPa, x2 = 0.0821	3.03
323.15 K, 100 kPa, x2 = 0.1596	2.65
323.15 K, 100 kPa, x2 = 0.2413	2.31
323.15 K, 100 kPa, x2 = 0.3502	1.93
323.15 K, 100 kPa, x2 = 0.4402	1.66
323.15 K, 100 kPa, x2 = 0.5611	1.34
323.15 K, 100 kPa, x2 = 0.6512	1.13
323.15 K, 100 kPa, x2 = 0.7501	0.95
323.15 K, 100 kPa, x2 = 0.8503	0.77
323.15 K, 100 kPa, x2 = 0.9396	0.66

CCN(CC)CCO.Cl + OCCOCCO
[1], 101 kPa, x2 = 0.75
Details	viscosity [mPa·s]
293.15 K	56.09
303.15 K	50.09
313.15 K	35.93
323.15 K	25.49
